Experimental data as given in ChEMBL document CHEMBL1201862, “PubChem BioAssay data set” (2004).
Activity calls are given as the source filed them.

Assays:
Prothrombin = Prothrombin (Bos taurus, UniProt P00735); test: thrombin inhibition, dose response, biochemical, fluorescence polarization, uHTS hits (AID 602369); assay type: functional
[1] = target: 72 kDa type IV collagenase (Homo sapiens, UniProt P08253); test: Dose Response validation of uHTS RPN11 inhibitor hits using a MMP-2 Fluorescence assay.; assay type: functional
Chain of 72 kDa type IV collagenase (P08253 whole entry): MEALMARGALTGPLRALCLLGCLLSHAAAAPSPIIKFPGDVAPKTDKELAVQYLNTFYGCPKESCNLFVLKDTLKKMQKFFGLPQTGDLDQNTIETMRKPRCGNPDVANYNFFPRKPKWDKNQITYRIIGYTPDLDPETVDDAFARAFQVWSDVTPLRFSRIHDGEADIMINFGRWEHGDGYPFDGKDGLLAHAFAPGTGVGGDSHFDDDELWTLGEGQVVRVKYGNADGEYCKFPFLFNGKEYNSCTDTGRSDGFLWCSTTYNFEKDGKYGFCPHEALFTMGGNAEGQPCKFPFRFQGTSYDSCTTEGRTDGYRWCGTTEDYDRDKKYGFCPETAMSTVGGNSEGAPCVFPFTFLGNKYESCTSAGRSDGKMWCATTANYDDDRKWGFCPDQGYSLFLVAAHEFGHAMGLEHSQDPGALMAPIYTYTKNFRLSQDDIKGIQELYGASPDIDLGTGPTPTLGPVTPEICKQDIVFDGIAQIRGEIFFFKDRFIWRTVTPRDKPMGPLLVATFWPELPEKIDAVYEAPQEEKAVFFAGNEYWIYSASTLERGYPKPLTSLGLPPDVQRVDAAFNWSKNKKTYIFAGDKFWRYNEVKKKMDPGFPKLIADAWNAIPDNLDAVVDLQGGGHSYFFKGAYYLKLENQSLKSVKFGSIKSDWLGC

[2] = target: 26S proteasome non-ATPase regulatory subunit 14 (Homo sapiens, UniProt O00487); test: inhibition of proteasome subunit RPN11 – biochemical, fluorescence polarization, uHTS hits, confirmation (AID 602368); assay type: functional
Chain of 26S proteasome non-ATPase regulatory subunit 14 (O00487 whole entry): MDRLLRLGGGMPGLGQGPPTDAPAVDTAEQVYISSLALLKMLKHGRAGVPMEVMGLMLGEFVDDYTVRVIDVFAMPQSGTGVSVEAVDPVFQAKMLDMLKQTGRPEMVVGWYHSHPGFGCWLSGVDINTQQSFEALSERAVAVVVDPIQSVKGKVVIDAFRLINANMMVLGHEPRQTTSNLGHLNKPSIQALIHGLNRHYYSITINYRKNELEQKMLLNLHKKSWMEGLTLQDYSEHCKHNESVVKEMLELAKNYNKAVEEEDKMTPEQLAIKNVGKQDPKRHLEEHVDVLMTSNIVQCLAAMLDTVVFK

[3] = target: T1, DNA repair and recombination protein RAD54-like (Homo sapiens, UniProt Q92698); test: inhibitors of human RAD54 branch migration, confirmation, biochemical, fluorescence, cherry-picked samples, dose series (AID 651657); assay type: functional
T1 sequence (Q92698 whole entry): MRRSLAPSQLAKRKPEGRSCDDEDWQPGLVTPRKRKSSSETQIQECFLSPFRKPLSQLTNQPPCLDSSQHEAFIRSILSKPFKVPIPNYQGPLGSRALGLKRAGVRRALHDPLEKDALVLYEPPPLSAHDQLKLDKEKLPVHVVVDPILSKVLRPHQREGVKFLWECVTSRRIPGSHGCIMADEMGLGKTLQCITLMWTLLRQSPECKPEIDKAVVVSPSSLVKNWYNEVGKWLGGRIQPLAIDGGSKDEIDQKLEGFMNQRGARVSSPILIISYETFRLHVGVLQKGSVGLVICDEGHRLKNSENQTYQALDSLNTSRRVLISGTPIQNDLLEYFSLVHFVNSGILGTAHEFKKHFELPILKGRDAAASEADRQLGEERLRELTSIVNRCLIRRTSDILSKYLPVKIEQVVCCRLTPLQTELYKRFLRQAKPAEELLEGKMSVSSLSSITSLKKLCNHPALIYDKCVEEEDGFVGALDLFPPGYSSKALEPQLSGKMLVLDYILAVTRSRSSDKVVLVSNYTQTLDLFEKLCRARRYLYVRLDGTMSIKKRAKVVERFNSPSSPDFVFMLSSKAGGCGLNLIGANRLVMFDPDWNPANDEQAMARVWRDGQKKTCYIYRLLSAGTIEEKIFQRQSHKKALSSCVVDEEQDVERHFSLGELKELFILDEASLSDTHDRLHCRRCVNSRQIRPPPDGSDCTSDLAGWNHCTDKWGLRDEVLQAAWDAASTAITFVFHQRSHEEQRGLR

[4] = target: T2, DNA repair protein RAD52 homolog (Homo sapiens, UniProt P43351); assay type: functional, biochemical
T2 sequence (P43351 whole entry): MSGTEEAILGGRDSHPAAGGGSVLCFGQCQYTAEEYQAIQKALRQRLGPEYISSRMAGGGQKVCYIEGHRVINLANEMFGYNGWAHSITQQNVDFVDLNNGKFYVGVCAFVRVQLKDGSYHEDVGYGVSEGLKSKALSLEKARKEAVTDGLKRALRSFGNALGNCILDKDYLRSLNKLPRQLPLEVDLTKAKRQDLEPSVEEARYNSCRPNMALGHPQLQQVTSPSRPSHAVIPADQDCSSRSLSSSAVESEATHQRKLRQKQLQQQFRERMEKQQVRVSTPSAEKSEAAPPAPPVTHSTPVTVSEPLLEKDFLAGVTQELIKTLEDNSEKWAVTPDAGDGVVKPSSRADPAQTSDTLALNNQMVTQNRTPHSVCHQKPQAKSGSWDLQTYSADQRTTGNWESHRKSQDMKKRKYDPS

[5] = off-target signal loss in HeLa-CEM21 co-culture – HeLa F-luc CTL cells, cherry-picked, counter-screen for HIV-1 Env fusion inhibitor project, dose response (AID 652040); assay type: functional, cell-based;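 also: potency for signal decrease marking cytotoxic or nonspecific inhibition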
[6] = inhibitors of clade B AD8 Env fusion, dose response, cell-based, cherry-pick (AID 652062); assay type: functional;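 also: luciferase signal from cell-cell fusion driven by HIV-1 clade B AD8 Env; potency is for inhibitors of fusion seen as a drop in luminescence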
[7] = ZM109 Env clade C HIV-1 fusion inhibitors, dose response, HeLa effector, CEM target cells, luciferase, cherry-pick (AID 652058); assay type: functional, cell-based
[8] = inhibitors of HIV Env-driven cell fusion, dose response, cherry-pick (AID 652057); assay type: functional, cell-based
[9] = target: T3, Histone-lysine N-methyltransferase NSD2 (Homo sapiens, UniProt O96028); assay type: biochemical
T3 sequence (O96028 whole entry): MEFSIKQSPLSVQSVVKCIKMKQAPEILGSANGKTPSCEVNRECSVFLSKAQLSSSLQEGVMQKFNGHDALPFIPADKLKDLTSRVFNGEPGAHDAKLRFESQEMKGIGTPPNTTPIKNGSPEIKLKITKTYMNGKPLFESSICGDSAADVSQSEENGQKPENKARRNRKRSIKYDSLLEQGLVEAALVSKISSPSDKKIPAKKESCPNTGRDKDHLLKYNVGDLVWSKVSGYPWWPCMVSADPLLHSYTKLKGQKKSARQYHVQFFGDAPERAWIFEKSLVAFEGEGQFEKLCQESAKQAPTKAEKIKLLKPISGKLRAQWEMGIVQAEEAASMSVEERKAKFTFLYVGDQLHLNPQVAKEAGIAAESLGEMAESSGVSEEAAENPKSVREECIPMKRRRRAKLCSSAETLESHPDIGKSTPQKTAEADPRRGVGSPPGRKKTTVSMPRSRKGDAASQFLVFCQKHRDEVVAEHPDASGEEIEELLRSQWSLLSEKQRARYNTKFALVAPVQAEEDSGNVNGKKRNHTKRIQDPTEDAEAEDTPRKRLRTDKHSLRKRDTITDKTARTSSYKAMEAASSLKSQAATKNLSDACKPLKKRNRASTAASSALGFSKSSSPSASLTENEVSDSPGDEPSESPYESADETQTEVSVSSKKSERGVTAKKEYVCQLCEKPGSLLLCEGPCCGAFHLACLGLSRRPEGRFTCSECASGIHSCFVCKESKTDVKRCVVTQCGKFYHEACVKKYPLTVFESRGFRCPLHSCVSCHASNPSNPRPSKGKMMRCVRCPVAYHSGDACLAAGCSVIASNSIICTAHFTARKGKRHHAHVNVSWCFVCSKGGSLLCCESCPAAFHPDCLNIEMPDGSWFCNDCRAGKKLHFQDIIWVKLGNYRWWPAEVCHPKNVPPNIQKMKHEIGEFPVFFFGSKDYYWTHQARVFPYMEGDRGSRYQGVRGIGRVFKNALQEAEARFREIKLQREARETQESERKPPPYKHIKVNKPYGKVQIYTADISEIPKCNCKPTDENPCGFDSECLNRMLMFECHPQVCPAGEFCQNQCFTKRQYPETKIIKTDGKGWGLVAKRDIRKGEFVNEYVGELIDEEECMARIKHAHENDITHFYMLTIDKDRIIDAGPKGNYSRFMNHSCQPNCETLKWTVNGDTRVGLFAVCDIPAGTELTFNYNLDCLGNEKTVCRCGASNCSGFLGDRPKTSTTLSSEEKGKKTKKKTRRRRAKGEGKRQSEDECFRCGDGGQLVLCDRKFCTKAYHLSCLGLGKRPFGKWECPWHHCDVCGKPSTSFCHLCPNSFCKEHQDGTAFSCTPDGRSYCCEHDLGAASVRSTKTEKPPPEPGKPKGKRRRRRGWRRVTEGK

SN12K1 = test: cells; assay type: functional
P388/ADR = test: cells; assay type: functional; settings: Mus musculus
[10] = target: T4, Rac GTPase-activating protein 1 (Homo sapiens, UniProt Q9H0H5); test: MgcRacGAP GTPase-activating activity inhibitors, confirmation, biochemical, ADP Hunter fluorescence, primary and confirmatory (AID 624330); assay type: functional
T4 sequence (Q9H0H5 whole entry): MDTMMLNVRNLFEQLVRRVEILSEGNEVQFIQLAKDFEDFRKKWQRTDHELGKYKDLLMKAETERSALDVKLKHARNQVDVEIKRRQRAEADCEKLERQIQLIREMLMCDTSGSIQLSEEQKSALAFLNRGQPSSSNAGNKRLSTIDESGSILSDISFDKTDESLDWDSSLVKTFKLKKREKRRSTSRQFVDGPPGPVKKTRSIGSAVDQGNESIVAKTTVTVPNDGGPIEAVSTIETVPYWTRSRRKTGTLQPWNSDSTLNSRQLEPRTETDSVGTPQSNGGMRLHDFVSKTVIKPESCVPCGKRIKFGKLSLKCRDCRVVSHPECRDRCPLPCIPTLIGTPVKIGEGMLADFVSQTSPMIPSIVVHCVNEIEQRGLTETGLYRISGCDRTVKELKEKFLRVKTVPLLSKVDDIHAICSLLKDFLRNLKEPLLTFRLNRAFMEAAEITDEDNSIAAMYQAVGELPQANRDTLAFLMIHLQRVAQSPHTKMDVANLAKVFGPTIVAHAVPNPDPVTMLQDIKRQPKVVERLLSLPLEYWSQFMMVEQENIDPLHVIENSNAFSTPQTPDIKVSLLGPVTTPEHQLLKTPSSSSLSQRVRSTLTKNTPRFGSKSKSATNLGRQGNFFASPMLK

[11] = target: T5, Serine/threonine-protein phosphatase (Candida dubliniensis (strain CD36 / CBS 7987 / NCPF 3949 / NRRLY-17841) (Yeast), UniProt B9W6M3); test: calcineurin pathway inhibitors in yeast reporter, dose response, S. cerevisiae, CDRE-lacZ, luminescence, secondary (AID 2388); assay type: functional, cell-based;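 also: yeast reporter cells carrying a calcineurin-responsive lacZ construct stimulated with calcium chloride; luminescent beta-galactosidase reporter signal in whole cells rather than isolated phosphatase activity; potency for inhibition where a drop in reporter signal means calcineurin blockade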
T5 sequence (B9W6M3 whole entry): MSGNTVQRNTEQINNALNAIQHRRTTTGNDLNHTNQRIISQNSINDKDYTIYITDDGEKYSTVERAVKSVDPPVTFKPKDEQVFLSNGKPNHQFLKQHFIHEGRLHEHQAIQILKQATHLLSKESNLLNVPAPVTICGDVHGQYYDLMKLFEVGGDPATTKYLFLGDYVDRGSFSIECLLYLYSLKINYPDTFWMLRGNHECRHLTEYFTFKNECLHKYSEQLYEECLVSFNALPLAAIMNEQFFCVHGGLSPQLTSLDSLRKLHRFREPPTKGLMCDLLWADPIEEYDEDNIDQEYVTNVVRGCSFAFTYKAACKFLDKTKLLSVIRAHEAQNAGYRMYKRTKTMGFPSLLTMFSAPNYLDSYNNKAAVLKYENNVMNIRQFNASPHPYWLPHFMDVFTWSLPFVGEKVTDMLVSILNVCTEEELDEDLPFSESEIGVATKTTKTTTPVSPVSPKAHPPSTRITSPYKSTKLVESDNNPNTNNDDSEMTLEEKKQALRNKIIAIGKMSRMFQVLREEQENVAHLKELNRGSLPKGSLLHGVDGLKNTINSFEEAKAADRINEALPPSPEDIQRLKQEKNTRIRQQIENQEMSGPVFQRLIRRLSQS

[12] = C. albicans growth with fluconazole, confirmation, fluorescence, retest (AID 2467); assay type: functional, cell-based
Nonstructural protein 1 = Nonstructural protein 1 (Influenza A virus, UniProt Q194T2); assay type: functional, Influenza A virus (A/California/07/2009(H1N1))
Chain of Nonstructural protein 1 (Q194T2 whole entry): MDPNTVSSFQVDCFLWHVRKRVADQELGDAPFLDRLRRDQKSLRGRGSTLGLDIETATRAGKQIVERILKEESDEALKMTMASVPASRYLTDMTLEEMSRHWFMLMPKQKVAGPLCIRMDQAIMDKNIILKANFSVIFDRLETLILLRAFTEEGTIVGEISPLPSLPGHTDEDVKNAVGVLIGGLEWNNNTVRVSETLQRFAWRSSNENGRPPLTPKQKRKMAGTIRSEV

[13] = NIH-3T3 fibroblast cytotoxicity, dose response, cytotoxicity control, cell-based, fluorescence, Alamar Blue, secondary assay (AID 2327); assay type: functional;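 also: NIH-3T3 mouse fibroblasts cultured with fluconazole at 8 µg/mL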
[14] = target: ATP-dependent molecular chaperone HSP82 (Candida albicans (strain WO-1) (Yeast), UniProt C4YTQ8); test: loss of DOC-induced GRE-beta-galactosidase reporter signal, dose response, Hsp90 inhibitor project, S. cerevisiae, luminescence (AID 2400); assay type: functional, cell-based;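 also: beta-galactosidase luminescence from glucocorticoid response element reporter as proxy for Hsp90 function; inhibitor potency where signal loss means Hsp90 inhibition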
Chain of ATP-dependent molecular chaperone HSP82 (C4YTQ8 whole entry): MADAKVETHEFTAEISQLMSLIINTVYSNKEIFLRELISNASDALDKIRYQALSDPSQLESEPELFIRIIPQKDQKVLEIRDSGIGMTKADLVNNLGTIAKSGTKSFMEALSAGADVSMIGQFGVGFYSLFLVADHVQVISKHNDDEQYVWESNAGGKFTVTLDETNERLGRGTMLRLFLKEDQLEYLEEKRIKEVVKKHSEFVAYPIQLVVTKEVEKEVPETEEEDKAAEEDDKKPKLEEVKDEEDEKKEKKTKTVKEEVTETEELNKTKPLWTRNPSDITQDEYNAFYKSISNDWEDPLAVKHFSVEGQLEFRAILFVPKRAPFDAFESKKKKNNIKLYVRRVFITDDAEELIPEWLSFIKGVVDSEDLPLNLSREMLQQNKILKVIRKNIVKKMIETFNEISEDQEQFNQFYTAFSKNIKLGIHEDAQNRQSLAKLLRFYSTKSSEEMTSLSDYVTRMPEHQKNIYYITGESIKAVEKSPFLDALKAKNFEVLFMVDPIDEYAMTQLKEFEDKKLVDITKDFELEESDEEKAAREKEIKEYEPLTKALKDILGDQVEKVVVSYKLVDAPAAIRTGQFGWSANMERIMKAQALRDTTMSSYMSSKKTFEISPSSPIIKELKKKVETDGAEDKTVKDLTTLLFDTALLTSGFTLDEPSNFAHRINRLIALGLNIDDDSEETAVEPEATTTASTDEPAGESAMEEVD

cells [15] = assay type: functional, cell-based
cells [16] = assay type: functional, cell-based; remark: listed apart in the source
HEK293 = test: inhibitors of LMP1-driven NF-kB reporter, dose response, cell-based, HEK293, luciferase, cherry-pick (AID 588343); assay type: functional; settings: Homo sapiens
Large T antigen = Large T antigen (Simian virus 40, UniProt P03070); assay type: functional, Betapolyomavirus macacae;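 also: Confirmatory-stage PubChem screen for compounds that inhibit SV40 T antigen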
Chain of Large T antigen (P03070 whole entry): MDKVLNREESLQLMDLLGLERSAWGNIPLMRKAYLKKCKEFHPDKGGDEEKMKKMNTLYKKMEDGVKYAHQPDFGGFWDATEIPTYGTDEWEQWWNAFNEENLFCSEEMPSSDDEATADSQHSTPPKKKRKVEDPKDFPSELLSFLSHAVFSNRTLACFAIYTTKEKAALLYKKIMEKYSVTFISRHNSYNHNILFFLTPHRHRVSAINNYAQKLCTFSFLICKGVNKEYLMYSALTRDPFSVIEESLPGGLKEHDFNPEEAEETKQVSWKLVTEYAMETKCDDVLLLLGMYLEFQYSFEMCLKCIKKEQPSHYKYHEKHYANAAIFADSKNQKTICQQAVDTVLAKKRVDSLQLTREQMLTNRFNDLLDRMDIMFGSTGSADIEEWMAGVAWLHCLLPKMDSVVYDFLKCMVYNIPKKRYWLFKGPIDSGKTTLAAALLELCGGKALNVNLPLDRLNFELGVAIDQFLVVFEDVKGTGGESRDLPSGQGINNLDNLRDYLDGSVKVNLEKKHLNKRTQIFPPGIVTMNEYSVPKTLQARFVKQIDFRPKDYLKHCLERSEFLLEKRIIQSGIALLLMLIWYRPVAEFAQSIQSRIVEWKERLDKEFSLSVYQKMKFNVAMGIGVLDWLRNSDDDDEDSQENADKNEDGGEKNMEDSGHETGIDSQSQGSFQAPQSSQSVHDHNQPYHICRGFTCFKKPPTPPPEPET

## CC(C)(C)c1nc2ccccc2c2nnc(SCC(=O)Nc3nc4ccccc4s3)n12
Prothrombin
  IC50: > 100 µM (inactive)
[1]
  IC50: > 100 µM (inactive)
[2]
  IC50: 3.79 µM (active)

## CCN(CC)CCN(C(=O)c1ccc2ncsc2c1)c1nc2cc3c(cc2s1)OCO3
[3]
  AC50: 51.9 µM (active)

## Cn1c2ccccc2c(=O)c2cc(NCCCN3CCOCC3)ccc21
[4]
  AC50: 7.92 µM (active)
[3]
  AC50: 11.7 µM (active)

## O=C(N(c1ccccn1)c1ccccn1)C12CC3CC(CC(Cl)(C3)C1)C2
[5]
  AC50: 6.95 µM (active)
[6]
  AC50: 9.92 µM (active)
[7]
  AC50: 4.96 µM (active)
[8]
  AC50: 5.04 µM (active)

## CCN(CC)CCNc1nc(SC)nc2sc3c(c12)CCN(C)C3
[4]
  AC50: 5.18 µM (active)
[9]
  AC50: > 20 µM (inactive)
[3]
  AC50: 95.3 µM (active)

## Cn1c(=O)oc2cc(S(=O)(=O)N3CCN(c4ccccc4F)CC3)ccc21
Prothrombin
  IC50: 52.9 µM (active)
[1]
  IC50: > 100 µM (inactive)
[2]
  IC50: 20.7 µM (active)

## CC[C@]1(C(=O)OC)[C@H]2C(=O)N(Cc3ccccc3)C(=O)[C@H]2[C@H]2CN=C(SCc3ccccc3)N21
[5]
  AC50: 1.55 µM (active)
[6]
  AC50: 1.68 µM (active)
[7]
  AC50: 1.16 µM (active)
[8]
  AC50: 1.01 µM (active)

## CCN(CC)CC[n+]1ccc2c(C)c3[nH]c4ccccc4c3c(C)c2c1
SN12K1
  GI50: 0.137 µM (active)
P388/ADR
  GI50: 29.9 µM (inactive)

## COc1ccc(NC(=O)c2cccc3c(-c4cccnc4)coc23)cc1
Prothrombin
  IC50: > 100 µM (inactive)
[1]
  IC50: > 100 µM (inactive)
[2]
  IC50: 15.2 µM (active)

## COc1ccc(NC(=O)Nc2ccc3c(c2)CC(=O)N([C@H](C)CO)C[C@H](C)[C@H](CN(C)S(=O)(=O)c2cccs2)O3)cc1
[6]
  AC50: 5.21 µM (active)
[7]
  AC50: 1.55 µM (active)
[8]
  AC50: 0.96 µM (active)

## CCN(CC)S(=O)(=O)c1ccc(N/N=C/c2ccc(O)cc2O)nc1
[10]
  IC50: 24.3 µM (active)
[11]
  EC50: > 180 µM (inactive)
[12]
  EC50: 0.945 µM (active)
Nonstructural protein 1
  IC50: 12.1 µM (active)
[13]
  EC50: 38.5 µM (active)
[14]
  EC50: > 160 µM (inactive)
Cells [15]
  EC50: 4.61 µM (active)
Cells [16]
  EC50: > 350 µM (not active)
HEK293
  AC50: 5.04 µM (active)

## COc1cc2c(cc1O)CC[n+]1cc3c(OC)c(OC)ccc3cc1-2 [JATRORRHIZINE]
[12]
  EC50: 2.91 µM (active)
[4]
  AC50: 15.2 µM (active)
Large T antigen
  IC50: 10.1 µM (active)
[13]
  EC50: > 160 µM (inactive)
